Calls of active or inactive are those of the source.
Experiments:
[1] = Luminescence-based cell-based high throughput dose response assay to identify activators of the DAF-12 from the parasite S. stercoralis (ssDAF-12).; format: functional
[2] = target: T1, Oxysterols receptor LXR-beta (Homo sapiens, UniProt P55055); format: functional, cell-based;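 note: Cell-based luminescence dose-response assay of agonist activity at LXR, run as a confirmatory counterscreen to a daf-12 agonist screen; HEK293 cells with Gal4-LXR fusion and GAL4-driven luciferase reporter; agonist potency from rising luciferase signal of a Gal4-LXR reporter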
T1 sequence (P55055 whole entry): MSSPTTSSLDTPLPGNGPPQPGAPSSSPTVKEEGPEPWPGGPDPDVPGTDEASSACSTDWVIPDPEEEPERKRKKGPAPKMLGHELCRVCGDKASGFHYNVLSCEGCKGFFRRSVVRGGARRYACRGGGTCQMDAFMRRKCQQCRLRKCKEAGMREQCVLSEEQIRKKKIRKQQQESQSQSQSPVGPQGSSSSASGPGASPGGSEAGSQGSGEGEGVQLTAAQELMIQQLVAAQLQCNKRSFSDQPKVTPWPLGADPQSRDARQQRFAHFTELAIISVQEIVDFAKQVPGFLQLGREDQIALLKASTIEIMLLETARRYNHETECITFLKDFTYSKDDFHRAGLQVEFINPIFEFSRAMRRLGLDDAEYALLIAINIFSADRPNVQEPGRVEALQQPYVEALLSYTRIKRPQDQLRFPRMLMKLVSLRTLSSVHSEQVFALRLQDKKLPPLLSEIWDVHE

[3] = cells
[4] = inhibitors of PGC1a acetylation in cells, dose response, cell-based, cherry-picked samples (AID 720514); format: functional;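 note: potency may reflect raised or lowered acetylation signal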
[5] = target: T2, fMet-Leu-Phe receptor (Homo sapiens, UniProt P21462); test: FPR ligands, dose response (AID 519); format: functional
T2 sequence (P21462 whole entry): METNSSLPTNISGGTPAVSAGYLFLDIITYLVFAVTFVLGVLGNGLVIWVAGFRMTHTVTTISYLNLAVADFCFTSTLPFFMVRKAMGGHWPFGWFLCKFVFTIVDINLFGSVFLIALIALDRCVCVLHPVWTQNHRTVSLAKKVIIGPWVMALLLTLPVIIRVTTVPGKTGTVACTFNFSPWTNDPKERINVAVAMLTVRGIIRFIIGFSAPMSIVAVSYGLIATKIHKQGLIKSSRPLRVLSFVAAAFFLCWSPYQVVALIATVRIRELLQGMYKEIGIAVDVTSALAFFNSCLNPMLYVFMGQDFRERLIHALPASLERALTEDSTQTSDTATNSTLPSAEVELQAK

[6] = target: Cytochrome P450 3A4 (Homo sapiens, UniProt P08684); conditions: Potency;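 note: confirmatory qHTS run detecting inhibitors and substrates of CYP3A4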
[7] = target: T3, Microphthalmia-associated transcription factor (Homo sapiens, UniProt O75030); test: TRPM1 promoter luciferase signal decrease, dose response, MITF inhibitor project, cell-based, SK-MEL-5, cherry-picked, set 3 (AID 493073); format: functional
T3 sequence (O75030 whole entry): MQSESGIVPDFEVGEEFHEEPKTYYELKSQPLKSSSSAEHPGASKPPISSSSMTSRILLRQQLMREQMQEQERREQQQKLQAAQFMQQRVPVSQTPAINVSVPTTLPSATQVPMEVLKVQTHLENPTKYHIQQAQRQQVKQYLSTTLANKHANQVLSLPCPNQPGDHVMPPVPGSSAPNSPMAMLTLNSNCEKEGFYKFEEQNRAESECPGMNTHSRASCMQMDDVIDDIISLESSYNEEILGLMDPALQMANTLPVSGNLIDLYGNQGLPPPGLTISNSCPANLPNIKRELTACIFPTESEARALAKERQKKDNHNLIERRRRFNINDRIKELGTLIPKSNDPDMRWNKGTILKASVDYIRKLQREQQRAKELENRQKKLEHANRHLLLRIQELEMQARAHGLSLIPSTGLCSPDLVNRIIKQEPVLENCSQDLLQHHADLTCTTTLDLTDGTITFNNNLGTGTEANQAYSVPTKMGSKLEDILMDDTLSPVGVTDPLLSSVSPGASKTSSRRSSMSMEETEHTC

[8] = A549 cell cytotoxicity, dose response, cytotoxicity control, plate reader, cherry-pick, antagonist series (AID 743412); format: functional, cell-based
[9] = HepG2 cell cytotoxicity, dose response, cytotoxicity control, plate reader, cherry-pick, antagonist series (AID 743416); format: functional, cell-based
[10] = LGR2 antagonists, dose response, cell-based, HEK293, CRE-luciferase reporter, cherry pick, set 2 (AID 743343); format: functional;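 note: transfected cells were stimulated with diluted bursicon conditioned medium after compound addition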
[11] = MC4R antagonists, dose response, counter-screen for LGR2 antagonist project, cell-based, plate reader, cherry pick (AID 743444); format: functional;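 note: transfected HEK 293 cells stimulated with alpha-MSH peptide; potency of inhibitors of the alpha-MSH evoked signal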
[12] = HEK293 cell cytotoxicity, dose response, cytotoxicity control, plate reader, cherry-picked samples (AID 743446); format: functional, cell-based
[13] = target: T4, Heat shock factor protein 1 (Mus musculus, UniProt P38532); test: inhibition of MG132-induced HSE-luciferase signal, confirmation, cell-based, NIH3T3, luminescence, dose retest (AID 2382); format: functional;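 note: NIH3T3 fibroblasts with HSF1-driven luciferase reporter stressed by proteasome inhibitor MG132; luminescence from HSF1-driven luciferase expression after 8 hours of MG132 stress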
T4 sequence (P38532 whole entry): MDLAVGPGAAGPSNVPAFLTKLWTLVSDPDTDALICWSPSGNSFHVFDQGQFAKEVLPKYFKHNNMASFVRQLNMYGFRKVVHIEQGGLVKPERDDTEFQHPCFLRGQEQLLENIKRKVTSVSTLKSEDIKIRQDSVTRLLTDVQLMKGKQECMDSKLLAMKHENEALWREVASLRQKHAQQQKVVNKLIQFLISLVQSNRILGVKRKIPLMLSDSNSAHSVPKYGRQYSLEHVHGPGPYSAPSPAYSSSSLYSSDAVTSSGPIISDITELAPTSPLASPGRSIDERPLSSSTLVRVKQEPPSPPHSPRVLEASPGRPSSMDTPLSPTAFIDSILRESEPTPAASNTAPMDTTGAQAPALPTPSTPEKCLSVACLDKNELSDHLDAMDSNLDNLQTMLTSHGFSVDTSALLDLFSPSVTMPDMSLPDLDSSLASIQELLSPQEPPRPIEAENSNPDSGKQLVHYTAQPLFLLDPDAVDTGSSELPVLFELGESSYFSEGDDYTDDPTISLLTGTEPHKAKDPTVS

[14] = THP-1 cell cytotoxicity, dose response, cytotoxicity control for non-replicating M. tuberculosis project (AID 489025); format: functional
[15] = Vero E6 cell cytotoxicity, dose response, cytotoxicity control for non-replicating M. tuberculosis project, secondary assay (AID 492998); format: functional, VeroE6; conditions: Vero C1008
[16] = cells; format: functional
[17] = inhibitors of firefly luciferase expression or activity, dose response, H4 neuroglioma cells, luminescence (AID 1990); format: functional, cell-based
[18] = cells; format: functional, cell-based
[19] = Luminescence Cell-Based Dose Response HTS to Identify Inhibitors of 5'UTR Stem-Loop Driven Prion Protein mRNA Translation in H4 Neuroglioblastoma Cells. [Related pubchem assays: 1827 (Project Summary), 1813 (Primary HTS)]; format: functional
[20] = inhibitors of SNCA 5'UTR-driven reporter translation, confirmation, H4 neuroglioma cells, luminescence (AID 1988); format: functional, cell-based
[21] = target: Large T antigen (Simian virus 40, UniProt P03070); format: functional, Betapolyomavirus macacae;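 note: Confirmatory-stage PubChem screen for compounds that inhibit SV40 T antigen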
[22] = cells; format: functional, cell-based; remark: listed apart in the source
[23] = target: Nonstructural protein 1 (Influenza A virus, UniProt Q194T2); format: functional, Influenza A virus (A/California/07/2009(H1N1))
[24] = target: FAD-linked sulfhydryl oxidase ALR (Homo sapiens, UniProt P55789); test: inhibitors of human ALR sulfhydryl oxidase, dose response, biochemical, H2O2 detection, luminescence, cherry-pick (AID 493248)
[25] = HEK293T cytotoxicity, dose response, cytotoxicity control for miR-122 modulator project, cell-based, activator set, cherry-pick (AID 720690); format: functional;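 note: HEK293T human cells scored for general mammalian cytotoxicity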
[26] = miR-122 activators in hepatoma reporter cells, dose response, cell-based, Huh7 psiCHECK-miR122, Renilla luciferase, cherry-picked (AID 651956); format: functional;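 note: huh7 hepatoma cells stably carrying a psiCHECK-2 miR-122 sensor plasmid; renilla luciferase signal reporting endogenous miR-122 activity after 48 h compound exposure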
[27] = P. falciparum Dd2 growth inhibitors, dose response, SYBR Green, cherry-picked samples (AID 1159567); format: functional, cell-based
[28] = HepG2 cell cytotoxicity, dose response, cytotoxicity control, cherry-picked samples (AID 1159577); format: functional, cell-based
[29] = P. falciparum 3D7-ScDHODH growth inhibitors, dose response, SYBR Green, dry powder samples (AID 1159570); format: functional, cell-based;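 note: parasite growth measured after 72 hours of compound exposure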
[30] = HepG2 cell cytotoxicity, dose response, cytotoxicity control, plate reader, dry powder samples (AID 1159569); format: functional, cell-based;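 note: inhibitor potency with signal falling toward the positive control level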
[31] = P. falciparum Dd2 growth inhibitors, dose response, SYBR Green, dry powder samples (AID 1159566); format: functional, cell-based;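 note: potency for growth inhibition with lower SYBR green DNA signal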
[32] = P. falciparum ATP4 D1247Y mutant growth inhibitors, dose response, NITD609-resistant line, SYBR Green, dry powder (AID 1159571); format: functional, cell-based;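 note: parasites synchronized at ring stage by sorbitol before testing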

Sequence of Cytochrome P450 3A4 (P08684 whole entry): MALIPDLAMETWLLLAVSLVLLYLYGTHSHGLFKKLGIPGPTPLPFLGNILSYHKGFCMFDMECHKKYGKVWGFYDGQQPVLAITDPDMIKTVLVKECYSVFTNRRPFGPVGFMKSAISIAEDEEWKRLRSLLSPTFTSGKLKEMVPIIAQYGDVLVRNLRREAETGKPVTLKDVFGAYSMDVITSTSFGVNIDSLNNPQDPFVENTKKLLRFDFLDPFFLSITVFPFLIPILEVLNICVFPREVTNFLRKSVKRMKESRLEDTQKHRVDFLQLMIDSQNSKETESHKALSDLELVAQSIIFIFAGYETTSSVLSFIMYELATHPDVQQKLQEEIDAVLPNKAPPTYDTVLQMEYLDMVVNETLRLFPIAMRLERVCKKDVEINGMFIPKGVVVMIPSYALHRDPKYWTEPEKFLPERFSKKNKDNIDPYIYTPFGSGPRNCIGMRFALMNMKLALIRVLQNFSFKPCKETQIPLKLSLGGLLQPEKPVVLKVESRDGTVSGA
Sequence of Nonstructural protein 1 (Q194T2 whole entry): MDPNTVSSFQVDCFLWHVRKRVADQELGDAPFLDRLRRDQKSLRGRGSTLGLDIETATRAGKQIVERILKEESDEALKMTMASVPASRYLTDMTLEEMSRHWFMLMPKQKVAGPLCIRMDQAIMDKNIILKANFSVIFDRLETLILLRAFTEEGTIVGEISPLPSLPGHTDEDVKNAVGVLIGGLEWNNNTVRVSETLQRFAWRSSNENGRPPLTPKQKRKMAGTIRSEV
Sequence of Large T antigen (P03070 whole entry): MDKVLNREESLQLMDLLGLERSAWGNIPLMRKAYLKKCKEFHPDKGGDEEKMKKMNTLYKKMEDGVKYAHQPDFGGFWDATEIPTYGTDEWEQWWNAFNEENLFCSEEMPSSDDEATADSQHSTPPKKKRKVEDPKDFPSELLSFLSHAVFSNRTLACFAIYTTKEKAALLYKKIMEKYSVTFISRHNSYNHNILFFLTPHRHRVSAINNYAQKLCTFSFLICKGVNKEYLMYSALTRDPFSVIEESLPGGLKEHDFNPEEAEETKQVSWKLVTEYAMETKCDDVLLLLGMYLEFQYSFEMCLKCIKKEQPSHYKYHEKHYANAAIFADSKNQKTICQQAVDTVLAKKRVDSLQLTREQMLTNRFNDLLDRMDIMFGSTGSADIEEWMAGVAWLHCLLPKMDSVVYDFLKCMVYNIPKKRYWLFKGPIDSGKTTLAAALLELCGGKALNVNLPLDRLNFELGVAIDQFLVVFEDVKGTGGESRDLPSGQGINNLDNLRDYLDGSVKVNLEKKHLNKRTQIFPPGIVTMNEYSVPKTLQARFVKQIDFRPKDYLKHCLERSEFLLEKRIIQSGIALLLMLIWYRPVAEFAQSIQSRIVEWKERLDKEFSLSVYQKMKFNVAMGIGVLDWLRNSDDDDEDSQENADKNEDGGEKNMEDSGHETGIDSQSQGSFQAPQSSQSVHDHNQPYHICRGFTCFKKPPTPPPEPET
Sequence of FAD-linked sulfhydryl oxidase ALR (P55789 whole entry): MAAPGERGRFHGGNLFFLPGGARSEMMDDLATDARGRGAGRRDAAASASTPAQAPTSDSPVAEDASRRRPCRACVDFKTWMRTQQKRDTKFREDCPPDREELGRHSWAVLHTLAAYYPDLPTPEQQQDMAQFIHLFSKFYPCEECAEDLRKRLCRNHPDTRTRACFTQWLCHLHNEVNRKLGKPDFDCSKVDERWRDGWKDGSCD

Oc1ccccc1-c1cc(-c2ccccc2)no1
IC50 [1]: > 67.5 µM (inactive)
EC50 [2]: > 67.5 µM (inactive)
EC50 [3]: > 67.5 µM (inactive)

CN(C)CCCN(C(=O)CCOc1ccccc1)c1nc2ccc(F)cc2s1
AC50 [4]: 12.8 µM (active)

COc1cc(C2C(C(=O)c3ccc4c(c3)CC(C)O4)=C(O)C(=O)N2CCCn2ccnc2)ccc1O (stereo not drawn)
Ki [5]: 57.5 µM (inactive)

CC1C(=O)OC2C1CC[C@@]1(C)C=CC(=O)[C@@]3(C)O[C@@]213 (stereo partly drawn)
AC50 [6]: 39.8 µM (inconclusive)

Cc1cc(C)n(-c2ccc(C(=O)Nc3ccc(C)c(S(=O)(=O)N4CCOCC4)c3)cc2)n1
AC50 [7]: 4.54 µM (active)
AC50 [8]: > 52 µM (inactive)
AC50 [9]: 33.8 µM (active)
AC50 [10]: 18.1 µM (active)
AC50 [11]: 13.4 µM (active)
AC50 [12]: 25.4 µM (active)

Cn1c(N)c(C(=O)COC(=O)c2cc(C(F)(F)F)nc3ccccc23)c(=O)n(Cc2ccccc2)c1=O
AC50 [6]: 15.8 µM (inconclusive)

COc1ccccc1NC(=O)c1ccc([N+](=O)[O-])o1
EC50 [13]: > 195 µM (not active)
CC50 [14]: 17.5 µM (active)
CC50 [15]: 5.96 µM (active)
IC50 [16]: 9.55 µM (active)

CCOC(=O)c1c(NC(=O)c2cc(C3CC3)on2)sc2c1CCCC2
Ki [5]: > 66.7 µM (inactive)

Cc1ccccc1Nc1c(-c2ccccn2)nc2ccccn12
EC50 [17]: 11 µM (active)
EC50 [18]: 221 µM (active)
EC50 [19]: 10.4 µM (active)
EC50 [20]: 10.5 µM (active)
IC50 [21]: < 0.39 µM (active)
EC50 [22]: > 350 µM (not active)
CC50 [14]: 13.7 µM (active)
CC50 [15]: 3.7 µM (active)
IC50 [23]: 14.7 µM (active)
AC50 [24]: 1.37 µM (active)
IC50 [16]: 1.75 µM (active)

CC(=O)n1nc(-c2ccccc2)cc1-c1ccccc1
EC50 [2]: > 67.5 µM (inactive)
EC50 [3]: > 67.5 µM (inactive)

COc1ccccc1CNc1nc(Nc2ccccc2Cl)c2sccc2n1
AC50 [25]: 2.71 µM (active)

O=C(N/N=C/c1cc([N+](=O)[O-])ccc1O)C12CC3CC(CC(C3)C1)C2
CC50 [14]: 21 µM (active)
CC50 [15]: > 20 µM (active)
IC50 [16]: 16.3 µM (active)

C[C@@H]1CN([C@H](C)CO)S(=O)(=O)c2ccc(C#Cc3ccccc3F)cc2O[C@@H]1CN(C)C(=O)c1ccc2c(c1)OCO2
AC50 [26]: 4.28 µM (active)
AC50 [25]: 20.6 µM (active)

O=C(NCc1cccnc1)C1c2ccccc2C(=O)N1C1CCCCCC1 (stereo not drawn)
Ki [5]: 36.4 µM (inactive)

CN1C(=O)c2cc(NC(=O)c3ccc(Cl)cc3)ccc2OC[C@@H]2O[C@H](CC(=O)NCc3cccc(F)c3)CC[C@@H]21
AC50 [25]: 26.6 µM (active)

CCC(=O)N(C)C[C@@H]1Oc2ncc(C#CCc3ccccc3)cc2C(=O)N([C@H](C)CO)C[C@@H]1C
AC50 [4]: 16.4 µM (active)

Cc1ccc(-c2ccc([C@H]3[C@@H]4CN(C(=O)Nc5ccc(C(F)(F)F)cc5)C[C@H]3N4)cc2)cc1
AC50 [4]: 9.39 µM (active)
AC50 [27]: 3.4 µM (active)
AC50 [28]: 13.1 µM (active)

C(=C\c1ccc([C@@H]2[C@@H]3CN(Cc4cccnc4)C[C@H]2N3)cc1)/c1ccccc1
AC50 [27]: < 0.3 µM (active)
AC50 [28]: 10.8 µM (active)

COc1ccc2c3c([nH]c2c1)[C@H](CO)N(Cc1ccc(Cl)cc1)CC31CCN(Cc2nccs2)CC1
AC50 [29]: 1.22 µM (active)
AC50 [30]: 25.8 µM (active)
AC50 [27]: 1.22 µM (active)
AC50 [31]: 0.781 µM (active)
AC50 [28]: > 39 µM (inactive)
AC50 [32]: 1.11 µM (active)

O=C(Nc1ccccc1F)N1CCCCN2[C@@H](CO)[C@H](c3ccc(C#Cc4ccccc4)cc3)[C@@H]2C1
AC50 [27]: 0.392 µM (active)
AC50 [28]: 10.3 µM (active)

O=C(C1CCCC1)N1CC(=O)N2[C@H](C1)[C@@H](c1ccc(-c3cccnc3)cc1)[C@@H]2CO
AC50 [29]: 2.97 µM (active)
AC50 [30]: > 100 µM (inactive)
AC50 [27]: 1.06 µM (active)
AC50 [31]: 0.746 µM (active)
AC50 [32]: 1.52 µM (active)

CCCN(C)C[C@@H]1Oc2cc(C#Cc3cccnc3)ccc2S(=O)(=O)N([C@H](C)CO)C[C@@H]1C
AC50 [29]: 2.35 µM (active)
AC50 [30]: > 100 µM (inactive)
AC50 [27]: 2.09 µM (active)
AC50 [31]: 1.45 µM (active)
AC50 [32]: 1.03 µM (active)
